Data published in US20090105206A1, “Copper Melphalan And Copper Tegafur As Anti-Tumor Agents” (priority 2004, published 2009).
Values joined by “and” are separate entries in the source; they are usually repeats but may differ in a detail not shown here. Equal entries are not always repeated.

Key:
[1] = in water: light blue coloring of the solution, foam on shaking
[2] = tested on: murine renal cell carcinoma (RENCA) tumor cells applied orthotopically; test: Example 5: orthotopic RENCA model, late treatment from Day 10; format: in vivo, Balb/c mouse
Description: (§1) The tests were carried out on a murine renal cell carcinoma model (RENCA) of the Balb/c mouse. The tumor cells were applied orthotopically into the left-hand renal capsule of syngenic mice. The effect of the treatment carried out on a primary tumor (in the implanted kidney), metastases (predominantly in the lungs, spleen and intestinal lymph nodes) and vessel density were investigated.
(§2) After anesthesia by means of isoflurane narcosis (O2— flow approx. 2.0 l with 0.5-1.5% isoflurane) a small incision was made in the mouse's left flank. The kidney was prepared and presented free from the peritoneum. A 27 G needle was introduced via the lower kidney pole through to below the renal capsule with visual inspection, and […] in 70 μl aliquots respectively applied once. The occurrence of a visible liquid-filled blister between kidney parenchyma and renal capsule and the discoloration of the kidneys were regarded as criteria for successful application. The kidney was subsequently reset and the incision into the abdominal wall closed by means of fascia stitches and cutaneous stitches with absorbable stitching material. Five test groups with ten animals respectively were formed. Group 1 negative control, group 2 positive control melphalan (Glaxo), group 3 and 4 MOC melphalan 2.5 mg/kg and 5 mg/kg. In the case of group 5 an antiangiogenically effective substance was applied as the positive control. The start of treatment was fixed for day 1 post op. for Cu(melphalan)2. Treatment was carried out daily up to day seven (see treatment model). The test was ended after 19 days since, owing to their size, the control tumors required termination for ethical reasons.
(§3) After selecting the animals the tissues to be examined were quickly transferred into liquid nitrogen and then frozen at −80° C. 5-10 μm thick sections were prepared from the tissue parts. The preparations were immunohistochemically dyed with an anti-CD31 antibody (Pecam-1) and the number of vessels in the control and treatment groups counted. Two sections of each tumor with three areas respectively were used for counting the vessels.
The study report matches that of Example 4, differing only in terms of treatment intervals and dose groups. Four test groups with ten animals respectively were formed. Group 1 negative control, group 2 positive control melphalan (Glaxo), groups 3 and 4 Cu(melphalan)2 5 mg/kg and 7.5 mg/kg. The start of treatment was fixed for day 10 post op. for all groups. The intention was for daily treatment from day 10 until day 17 (see treatment model). Owing to toxicities the treatment period was reduced to day 10-14. After 18 days the test was ended since, owing to their size, the control tumors required termination for ethical reasons.
• The implantation day was counted as day 0. • Duration of the test 18 days. • Number of animals at beginning of test 40; no animals died during the op.

[3] = tested on: murine renal cell carcinoma (RENCA) tumor cells applied orthotopically; test: Example 4: orthotopic renal cell carcinoma model (RENCA), treatment Day 1-7; primary tumor, metastases, vessel density (anti-CD31); format: in vivo, Balb/c mouse; conditions: Melphalan 16.4 μmol/kg (5 mg/kg/d) i.p. Day 1-7, individual animals
Description: as §1, §2
• The implantation day was counted as day 0. • Duration of the test 19 days. • Number of animals at beginning of test 50, no animals died during the op.
as §3

[4] = tested on: OVCAR-3/P19 tumor cells; test: Example 6: NOD/SCID mice s.c. injected with OVCAR-3 tumor cells; format: in vivo, female NOD/SCID mice; parameters: Vol (tumor volume) Day 20 / Vol (tumor volume) Day 30 / Vol (tumor volume) Day 37: unit: cm^3
Description: 2×10^6 OVCAR-3/P19 tumor cells were s.c. injected into female NOD/SCID mice. The mice were treated as follows.
The treatment began with a mean tumor volume of 80 mm^3.
To level possible differences in tumor volume at the start of treatment in the individual groups and to make evident differences owing to the low absolute volumes in the treatment groups, the relative tumor volumes (RTV) have been analyzed. The relative tumor volume results from the ratio of the volume on day x and the tumor volume at the start of treatment in the same test animal. […] The tumor growth was stopped in group 2 after just 7 days. After 3 days of constant tumor volume a tumor regression began from day 30 (10th day of treatment) in the test animals treated with copper-melphalan.

[5] = Melphalan 16.4 μmol/kg (5 mg/kg/d) i.p. Day 10-14, day 18, individual animals
[6] = Gr. 2, 5 mg/kg melphalan i.p., individual animals
[7] = Gr. 2, 5 mg/kg melphalan i.p., n = 8
[8] = Gr. 2, 5 mg/kg melphalan i.p., n = 8, baseline

O=c1[n-]c(=O)n(C2CCCO2)cc1F.O=c1[n-]c(=O)n(C2CCCO2)cc1F.[Cu+2] (centres unmarked) [Cu(tegafur)2]
solubility behavior [1]: substantially matched that of a copper(II) salt

N[C@@H](Cc1ccc(N(CCCl)CCCl)cc1)C(=O)O [Melphalan, 4-[bis-(2-chloroethyl)-amino]-L-phenylalanine]
Kidney weight [2, 5]: 2.77 gr and 1.38 gr and 0.69 gr and 2.91 gr and 1.90 gr (2×) and 1.63 gr and 2.11 gr and 1.45 gr and 1.13 gr
Lung weight [2, 5]: 0.14 gr and 0.15 gr and 0.13 gr (2×) and 0.28 gr and 0.11 gr and 0.38 gr and 0.10 gr and 0.31 gr
Number of intestinal lymph node metastases [2, 5]: 91 and 0 (3×) and 49 and 17 and 22 and 32 and 84
Number of lung metastases (late treatment day 10-14) [2, 5]: 304 and 614 and 317 and 5 and 750 (3×) and 71 and 500 and 46
Vessel density, later start of treatment day 10-14 ([2]; Melphalan 16.4 μmol/kg (5 mg/kg/d) i.p. Day 10-14, individual sections): 36 (2×) and 28 and 42 and 41 and 68 and 35 and 47 and 32 and 37 and 64 and 62 and 40 (2×) and 34
Kidney volume ([2]; Melphalan 16.4 μmol/kg (5 mg/kg/d) i.p. from Day 10 (planned 10-17, reduced to 10-14), test ended day 18, individual animals): 3.94 cm^3 and 2.59 cm^3 and 2.08 cm^3 and 4.25 cm^3 and 2.84 cm^3 and 2.20 cm^3 and 3.91 cm^3 and 3.63 cm^3 and 2.80 cm^3 and 3.23 cm^3
Kidney weight ([3]; day 19): 1.70 gr and 0.38 gr and 0.44 gr and 0.13 gr and 1.02 gr and 1.23 gr and 0.12 gr and 0.34 gr and 0.40 gr and 0.65 gr
Lung weight ([3]; day 19): 0.12 gr (2×) and 0.20 gr and 0.13 gr and 0.76 gr and 0.10 gr and 0.25 gr and 0.48 gr and 0.22 gr and 0.14 gr
Number of intestinal lymph node metastases ([3]; day 19): 0 (6×) and 9 and 2 and 8 and 5
Number of lung metastases ([3]; day 19): 7 and 273 and 1 and >750 (2×) and 28 (2×) and 5 and 640 and 328
Kidney volume ([3]; test ended day 19): 2.69 cm^3 and 0.58 cm^3 and 1.3 cm^3 and 0.28 cm^3 and 1.76 cm^3 and 2.00 cm^3 and 0.37 cm^3 and 0.77 cm^3 and 1.26 cm^3 and 1.60 cm^3
Vol (tumor volume) Day 20 ([4]; Gr. 2, 5 mg/kg melphalan i.p. days 21-37 every 2nd day, Day 20 = start of treatment (baseline), individual animals): 0.04 (2×) and 0.03 and 0.10 (2×) and 0.20 and 0.05 and 0.12
RTV (relative tumor volume) Day 20 ([4]; Gr. 2, 5 mg/kg melphalan i.p., Day 20 = start of treatment (baseline), individual animals): 1.00
RTV (relative tumor volume) Day 30 [4, 6]: 2.75 and 3.00 and 1.40 and 1.75 and 3.20 and 1.42 and 2.20 and 2.50
RTV (relative tumor volume) Day 37 [4, 6]: 1.98 and 2.37 and 0.81 and 1.05 and 1.66 and 0.82 and 1.71 and 1.18
Vol (tumor volume) Day 30 [4, 6]: 0.11 and 0.09 and 0.14 and 0.35 and 0.16 and 0.17 and 0.22 and 0.10
Vol (tumor volume) Day 37 [4, 6]: 0.08 (3×) and 0.07 and 0.21 and 0.10 and 0.17 and 0.05
RTV Day 30, mean [4, 7]: 2.28
RTV Day 30, median [4, 7]: 2.35
RTV Day 37, mean [4, 7]: 1.45
RTV Day 37, median [4, 7]: 1.42
Vol Day 30, mean [4, 7]: 0.17
Vol Day 30, median [4, 7]: 0.15
Vol Day 37, mean [4, 7]: 0.11
Vol Day 37, median [4, 7]: 0.08
RTV Day 20, mean [4, 8]: 1.00
RTV Day 20, median [4, 8]: 1.00
Vol Day 20, mean [4, 8]: 0.09
Vol Day 20, median [4, 8]: 0.08
mice with RTV>1 on day 37 ([4]; Gr. 2, 5 mg/kg melphalan, 6 of 8 mice): 75%
tumor regression / growth at the end of treatment ([4]; Gr. 2, 5 mg/kg melphalan, range over test animals): between 20% tumor regression and 98% growth
